≈ marks a conversion by molar mass, not a printed value.
Tests used:
Format in all cases: functional
[1] = system: Pseudomonas aeruginosa; assay: Antimicrobial activity against MexB overexpressing Pseudomonas aeruginosa isolate PA707 harboring gyrA T83I and parC S87L mutant gene by Etest method
[2] = system: Pseudomonas aeruginosa; assay: Antimicrobial activity against MexB overexpressing Pseudomonas aeruginosa isolate PA1165 harboring gyrA T83I and parC S87L mutant gene by Etest method
[3] = system: Pseudomonas aeruginosa; assay: Antimicrobial activity against Pseudomonas aeruginosa isolate PA7461 harboring gyrA T83I and parC S87L mutant gene by Etest method
[4] = system: Pseudomonas aeruginosa; assay: Antimicrobial activity against MexB overexpressing Pseudomonas aeruginosa isolate PA1378 harboring gyrA T83I mutant gene by Etest method
[5] = system: Pseudomonas aeruginosa; assay: Antimicrobial activity against Pseudomonas aeruginosa isolate PA27853 by Etest method
[6] = system: Pseudomonas aeruginosa; assay: Antimicrobial activity against Pseudomonas aeruginosa isolate PA8858 harboring gyrA T83I and parC S87L mutant gene by Etest method
[7] = system: Pseudomonas aeruginosa; assay: Antimicrobial activity against Pseudomonas aeruginosa isolate PA8119 harboring gyrA T83I and parC S87L mutant gene by Etest method
[8] = system: Pseudomonas aeruginosa; assay: Antimicrobial activity against MexB overexpressing Pseudomonas aeruginosa isolate PA1327 harboring gyrA T83I and parC S87L mutant gene by Etest method
[9] = system: Pseudomonas aeruginosa; assay: Antimicrobial activity against Pseudomonas aeruginosa isolate PA5600 harboring gyrA T83I and parC S87L mutant gene by Etest method
[10] = system: Pseudomonas aeruginosa; assay: Antimicrobial activity against MexB overexpressing Pseudomonas aeruginosa isolate PA9087 harboring gyrA T83I mutant gene by Etest method
[11] = system: Pseudomonas aeruginosa; assay: Antimicrobial activity against MexB overexpressing Pseudomonas aeruginosa isolate PA8108 harboring gyrA T83I mutant gene by Etest method
[12] = system: Pseudomonas aeruginosa; assay: Antimicrobial activity against Pseudomonas aeruginosa isolate PA641 parC P105T mutant gene by Etest method
[13] = system: Pseudomonas aeruginosa; assay: Antimicrobial activity against MexB overexpressing Pseudomonas aeruginosa isolate PA1328 harboring gyrA T83I and parC S87L mutant gene by Etest method
[14] = system: Pseudomonas aeruginosa; assay: Antimicrobial activity against MexB overexpressing Pseudomonas aeruginosa isolate PA6218 harboring gyrA D87N mutant gene by Etest method
[15] = system: Pseudomonas aeruginosa; assay: Antimicrobial activity against Pseudomonas aeruginosa isolate PA8721 harboring gyrA T83I and parC S87L mutant gene by Etest method
[16] = system: Pseudomonas aeruginosa; assay: Antimicrobial activity against Pseudomonas aeruginosa isolate PA5441 harboring gyrA T83I and parC S87L mutant gene by Etest method
[17] = system: Pseudomonas aeruginosa; assay: Antimicrobial activity against Pseudomonas aeruginosa isolate PA1166 harboring gyrA T83I and parC S87L mutant gene by Etest method
[18] = system: Pseudomonas aeruginosa; assay: Antimicrobial activity against Pseudomonas aeruginosa isolate PA9019 harboring gyrA D87G and parC S87L mutant gene by Etest method
[19] = system: Pseudomonas aeruginosa; assay: Antimicrobial activity against Pseudomonas aeruginosa isolate PA5513 harboring gyrA T83I and parC S87L mutant gene by Etest method

| Molecule | MIC50 [2] [µg/mL] | MIC50 [3] [µg/mL] | MIC50 [5] [µg/mL] | MIC50 [6] [µg/mL] | MIC50 [7] [µg/mL] | MIC50 [8] [µg/mL] | MIC50 [9] [µg/mL] | MIC50 [10] [µg/mL] | MIC50 [13] [µg/mL] | MIC50 [16] [µg/mL] | MIC50 [17] [µg/mL] | MIC50 [1] [µg/mL] | MIC50 [4] [µg/mL] | MIC50 [11] [µg/mL] | MIC50 [12] [µg/mL] | MIC50 [14] [µg/mL] | MIC50 [15] [µg/mL] | MIC50 [18] [µg/mL] | MIC50 [19] [µg/mL] | also measured |
| --- | --- | --- | --- | --- | --- | --- | --- | --- | --- | --- | --- | --- | --- | --- | --- | --- | --- | --- | --- | --- |
| C[C@@H](O)[C@H]1C(=O)N2C(C(=O)O)=C(S[C@@H]3CN[C@H](CNS(N)(=O)=O)C3)[C@H](C)[C@H]12 [DORIPENEM] | 12 (≈ 28.5 µM) | 12 (≈ 28.5 µM) | 0.19 (≈ 0.452 µM) | 8 (≈ 19 µM) | 16 (≈ 38 µM) | 8 (≈ 19 µM) | 4 (≈ 9.51 µM) | 6 (≈ 14.3 µM) | 3 (≈ 7.13 µM) | 4 (≈ 9.51 µM) | 24 (≈ 57.1 µM) |  |  |  |  |  |  |  |  | MIC90 [1]: > 32 µg/mL; MIC90 [4]: > 32 µg/mL; MIC90 [11]: > 32 µg/mL; MIC90 [12]: > 32 µg/mL; MIC90 [14]: > 32 µg/mL; MIC90 [15]: 32 µg/mL (≈ 76.1 µM); MIC90 [18]: > 32 µg/mL; MIC90 [19]: > 32 µg/mL |
| COLISTIN | 1.5 | 2 | 1.5 | 1.5 | 1.5 | 2 | 1 | 0.38 | 1.5 | 1.5 | 1 | 1 | 2 | 0.25 | 1.5 | 3 | 1.5 | 1.5 | 1 |  |
| POLYMYXIN B | 1.5 |  | 1.5 |  | 1.5 | 1 | 1.5 | 0.5 | 1.5 | 1.5 | 0.75 | 0.75 | 1.5 | 0.25 | 1 | 1.5 | 1.5 | 1 | 1 |  |
